Source: US20090285773A1, “Hepatitis C Virus Inhibitors” (Bristol-Myers Squibb Company, priority 2008, published 2009)
pIC50: −log10 of the molar value.

Key:
Assay type in all cases: biochemical
[1] = molecular target: porcine pancreatic elastase (PPE) (Sus scrofa, UniProt P00772); assay: Specificity assay, porcine pancreatic elastase; conditions: read-out: PPE activity in the specificity assays
Procedure: (§1) The specificities of compounds of the present disclosure were determined against a variety of serine proteases: human neutrophil elastase (HNE), porcine pancreatic elastase (PPE) and human pancreatic chymotrypsin and one cysteine protease: human liver cathepsin B. In all cases a 96-well plate format protocol using a fluorometric Amino-Methyl-Coumarin (AMC) substrate specific for each enzyme was used as described previously (PCT Patent Application No. WO 00/09543) with some modifications to the serine protease assays. All enzymes were purchased from Sigma, EMDbiosciences while the substrates were from Bachem, Sigma and EMDbiosciences.
(§2) Compound concentrations varied from 100 to 0.4 μM depending on their potency. The enzyme assays were each initiated by addition of substrate to enzyme-inhibitor pre-incubated for 10 min at room temperature and hydrolysis to 15% conversion as measured on cytofluor. […]
(§3) The percentage of inhibition was calculated using the formula: […]

[2] = molecular target: T1, HCV NS3/4A protease complex, H77 strain (1a genotype) (Hepatitis C virus genotype 1a, UniProt P27958, C1454S/C1711G); assay: FRET peptide assay, HCV NS3/4A protease complex, H77 strain
T1 construct: DNA encoding the recombinant HCV NS3/4A protease complex (amino acids 1027 to 1711) for these strains; His tag (inferred from pET21b vector and Ni-NTA purification); made in house; host or cells: Escherichia coli BL21 (DE3)
Description: HCV NS3 protease complexes, derived from the BMS strain, H77 strain or J4L6S strain, were generated, as described below. These purified recombinant proteins were generated for use in a homogeneous assay (see below) to provide an indication of how effective compounds of the present disclosure would be in inhibiting HCV NS3 proteolytic activity.
Serum from an HCV-infected patient was obtained from Dr. T. Wright, San Francisco Hospital. An engineered full-length cDNA (compliment deoxyribonucleic acid) template of the HCV genome (BMS strain) was constructed from DNA fragments obtained by reverse transcription-PCR (RT-PCR) of serum RNA (ribonucleic acid) and using primers selected on the basis of homology between other genotype 1a strains. From the determination of the entire genome sequence, a genotype 1a was assigned to the HCV isolate according to the classification of Simmonds et al. (See P Simmonds, K A Rose, S Graham, S W Chan, F McOmish, B C Dow, E A Follett, P L Yap and H Marsden, J. Clin. Microbiol., 31(6), 1493-1503 (1993)). […]

[3] = molecular target: T2, human liver cathepsin B (Homo sapiens, UniProt P07858); assay: Specificity assay, cathepsin B; conditions: read-out: Cathepsin B activity in the specificity assays
T2 construct: host or cells: human liver
Procedure: as §1, §2, §3

porcine pancreatic elastase (PPE), sequence (P00772 27-266): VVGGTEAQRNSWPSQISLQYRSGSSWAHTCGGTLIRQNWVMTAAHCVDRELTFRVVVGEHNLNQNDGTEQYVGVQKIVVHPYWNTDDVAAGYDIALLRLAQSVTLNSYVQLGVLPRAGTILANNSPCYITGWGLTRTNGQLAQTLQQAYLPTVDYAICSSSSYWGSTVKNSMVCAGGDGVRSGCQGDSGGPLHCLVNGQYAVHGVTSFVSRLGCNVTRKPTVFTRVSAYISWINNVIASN
T1 sequence (P27958 1027-1711 C1454S/C1711G, one chain of several): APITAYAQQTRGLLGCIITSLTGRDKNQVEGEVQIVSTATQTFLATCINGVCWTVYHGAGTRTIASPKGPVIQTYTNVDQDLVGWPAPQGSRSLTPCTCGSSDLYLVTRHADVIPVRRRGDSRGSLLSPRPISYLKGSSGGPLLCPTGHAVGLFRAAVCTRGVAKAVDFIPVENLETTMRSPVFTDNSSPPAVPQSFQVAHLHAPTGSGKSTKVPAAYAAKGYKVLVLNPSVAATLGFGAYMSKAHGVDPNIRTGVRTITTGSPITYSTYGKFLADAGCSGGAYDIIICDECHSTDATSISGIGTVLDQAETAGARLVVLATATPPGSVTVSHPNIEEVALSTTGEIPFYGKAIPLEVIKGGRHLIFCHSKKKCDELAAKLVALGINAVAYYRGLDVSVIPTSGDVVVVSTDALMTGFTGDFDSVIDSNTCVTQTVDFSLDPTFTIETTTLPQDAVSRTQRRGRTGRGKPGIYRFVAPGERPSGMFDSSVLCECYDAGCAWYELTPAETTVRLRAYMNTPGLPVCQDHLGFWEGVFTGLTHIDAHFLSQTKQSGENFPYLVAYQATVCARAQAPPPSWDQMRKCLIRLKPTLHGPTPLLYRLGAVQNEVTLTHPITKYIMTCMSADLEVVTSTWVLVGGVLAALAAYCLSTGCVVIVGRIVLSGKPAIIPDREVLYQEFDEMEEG

COc1ccc2c(O[C@@H]3C[C@H]4C(=O)N[C@]5(C(=O)NS(=O)(=O)C6CC6)C[C@H]5/C=C\CCCCC[C@H](Nc5ccc(OC)nc5)C(=O)N4C3)nccc2c1 (single isomer, unassigned) [Compound 1]
pIC50 [1]: < 4.60 | pIC50 [2]: 8.72 | pIC50 [3]: < 4.60
